According to patent publication US20070082856A1, “Combination therapy comprising the use of et-743 and doxorubicin for treating cancer” (Pharma Mar, S.A.U., priority 2003, published 2007):

How the values were obtained:
[1] = tested on: transplanted human sarcomas; details: ET-743 and doxorubicin; mice with transplanted human sarcomas; Meco et al. 2003; cited from earlier work
[2] = ET-743 with doxorubicin; tests on animal models; WO 0236135; cited from earlier work
[3] = human, in vivo
[4] = tested on: human tumor xenografts, including melanoma and ovarian and breast carcinoma; details: ET-743 alone; human tumor xenografts grown in athymic mice; cited from earlier work
[5] = Phase I clinical trial (Example 1): pharmacokinetics of both drugs for the 2 sequences; assay type: in vivo, human; details: for influence of order of administration on pharmacokinetics: ET-743 and Doxo, sequence A versus B; for comparison of the plasma disposition in patients receiving both sequences: ET-743 and doxorubicin, sequences A and B, cycle 1 and cycle 2
Protocol: Pharmacokinetic [PK] of both drugs was determined for the 2 sequences at cycle 1 and cycle 2, when patients received the drugs in the reverse order of administration. Alternating sequence was discontinued at observation of dose limiting toxicity [DLT]: observation of grade 4 hematological toxicity for more than 3 days at the entry level. Both drugs were administered on day 1, with a 1 h interval between the 2 drugs (ET-743, 3-hr infusion i.v. and Doxo, 1-hr infusion i.v push with steroids & 5-HT3 antagonists as antiemetic prophylaxis). Oral steroids premedication for ET-743 was given 24 h before and for 48 h following the day of treatment. Doxo was administered at the fixed dose of 60 mg/m^2, while ET-743 was started at 600 μg/m^2 and escalated thereafter in subsequent cohorts of at least 3 new cases. Patients continued treatment until progressive disease (PD) or intolerance, and were restaged every 2 cycles for activity.

[6] = tested on: untreated metastatic soft tissue sarcomas (STS) and advanced pre-treated anthracyline-naïve breast cancer (ABC); assay: Phase I clinical trial (Example 1): antitumor activity of ET-743 in combination with doxorubicin; assay type: in vivo, human
Protocol: In this multicenter dose and LTS finding trial, patients were assigned consecutively to start either with sequence A (ET-743 before Doxo) or with the reverse sequence (B) at the following dose levels every 21 days: […] Oral steroids premedication for ET-743 was given 24 h before and for 48 h following the day of treatment. […] Patients continued treatment until progressive disease (PD) or intolerance, and were […] 2 cycles for activity. In this study, 22 patients were enrolled and evaluable. The patients were required to have normal liver, renal, cardiac and haematologic functions and good performance status for entry into the study. Enrolment was restricted to breast cancer and soft tissue sarcoma.

sarcoma cell line = details: ET-743 and doxorubicin, Meco et al. 2003; cited from earlier work
[7] = tested on: sarcoma and breast and ovarian carcinoma; details: ET-743 alone; phase I intravenous infusion schedules; cited from earlier work
[8] = Phase I clinical trial (Example 2): safety profile and DLT of ET-743 days 1 and 8 with doxorubicin day 1; details: fixed Doxo dose day 1 with ET-743 700 μg/m^2 days 1 and 8, every 21 days

Structure (SMILES)	effect of the combination [1]	effect of the combination [2]	tolerability of the combination [3]	antineoplastic activity [4]	influence of order of administration on pharmacokinetics [5]	comparison of the plasma disposition in patients receiving both sequences [5]	antitumor activity ([6]; 600-700 μg/m^2 of ET-743 in combination with Doxo)	patients with confirmed partial response (PR) ([6]; all ET-743 dose levels + Doxo 60 mg/m^2, 22 evaluable patients) [pts]	antitumor activity of the combination ([6]; combination of ET-743 and doxorubicin, phase I clinical trials)	effect of the combination (sarcoma cell line)	responses in patients [7]	MTD, Doxo part [8] [mg/m^2]
COc1cc2c(cc1O)CCN[C@]21CS[C@@H]2c3c(OC(C)=O)c(C)c4c(c3[C@H](COC1=O)N1[C@@H]2[C@H]2c3c(cc(C)c(OC)c3O)C[C@@H]([C@@H]1O)N2C)OCO4 [ET-743, ecteinascidin 743]	additive effect	synergistic effect	tolerable and feasible	potent antineoplastic activity	did not influence the pharmacokinetics	did not reveal any significant pharmacokinetic interaction	Antitumor activity was observed	5	evidence of antitumor activity	additive effect	Promising responses	
COc1cccc2c1C(=O)c1c(O)c3c(c(O)c1C2=O)C[C@@](O)(C(=O)CO)C[C@@H]3O[C@H]1C[C@H](N)[C@H](O)[C@H](C)O1 [doxorubicin]					did not influence the pharmacokinetics	did not reveal any significant pharmacokinetic interaction						50
